Patent US20060079479A1, “Methods of inducing vasodilation” (priority 2004, published 2006)

Columns and labels:
human subjects = assay: Forearm blood flow (FBF) after infusion into forearm arteries of human subjects; type: in vivo; details: for forearm blood flow (FBF) before infusion (baseline): baseline value before forearm artery infusion; for forearm blood flow (vasodilation) at calculated equimolar concentrations: forearm artery infusion, calculated equimolar 1 μmol/min
Description: Blood pressure, heart rate, and respiration were continuously monitored throughout the administration. A physician was present throughout the study and monitored for side effects. At the end of each infusion period, the forearm blood flow (FBF) of each subject was then measured by standard techniques.
A physician was present, and the subject was monitored throughout the infusion, as in Example 1.

[1] = in pharmaceutically acceptable carriers; cited from earlier work
[2] = uptake by nucleoside transporter in red blood cells; cited from earlier work
[3] = forearm artery infusion 0.125 mg/min for 15 minutes

SMILES | vasodilation compared with adenosine at calculated equimolar concentrations (human subjects; 1 μmol/min, p<0.02) | forearm blood flow (FBF) before infusion (baseline) (human subjects) [ml/100 ml/min] | forearm blood flow (FBF) at end of infusion (human subjects; [3]) [ml/100 ml/min] | forearm blood flow (FBF) at end of infusion (human subjects; forearm artery infusion 0.5 mg/min for 15 minutes) [ml/100 ml/min] | forearm blood flow (vasodilation) at calculated equimolar concentrations (human subjects) [ml/100 ml/min] | limit of solubility [1] | half-life in blood [2]
Nc1ncnc2c1ncn2[C@@H]1O[C@H](COP(=O)(O)O)[C@@H](O)[C@H]1O [AMP, Adenosine 5′-monophosphate] | significantly greater vasodilation | 3.8±0.5 | 16.3±1.6 | 20.7±1.8 | 19.4±1.8 | approximately 400 mg/ml | –
Nc1ncnc2c1ncn2[C@@H]1O[C@H](CO)[C@@H](O)[C@H]1O [adenosine, reference compound] | – | 3.1±0.2 | 14.2±2.0 | – | 15.6±1.9 | approximately 5 mg/ml | less than 1 second
